The target of one test is T1, 5-HT2A receptor (Homo sapiens, UniProt P28223).
T1 construct: expressed in transfected cells; host or cells: CHO-K1 (alternatively human cortex tissue)
Nature of the test: radioligand binding assay for 5-HT2A receptor ([3H]-ketanserin). The following applies: competitive binding; for IC50: human cortex or recombinant 5-HT2A in CHO-K1, read-out: binding affinity to 5-HT2A serotonin receptor expressed as IC50 value; for Ki: human cortex or recombinant 5-HT2A in CHO-K1, read-out: binding affinity to 5-HT2A serotonin receptor, Ki value. Here is the method:
(§1) The effect of the compounds of the present invention on the neurochemical steady state was determined by in vitro investigations such as a radionuclide-marked radioligand binding assay for 5-HT2A (Bonhaus D. W. Br. J. Pharmacol. 1995, 115:622; Saucier C. J. Neurochem. 1997, 68:1998) and 5-HT2C receptors (Wolf W. A. J. Neurochem. 1997, 69:1449), in vitro binding assay for σ1 receptor (Thomson W. and Donn R. Arthritis Res. 2002, 4: 302-306) and by in vivo investigations in a tail suspension test (Vogel H. G. and Vogel W. H. Drug Discovery and Evaluation Pharmacological Assays, Springer 1997, 304), in amphethamine-induced hyperlocomotion in mice (Millan M. J. et al, 1998 J Pharmacol. Exp. Ther. 287: 167-186), in a forced swim test in mice (Porsolt R. D. et al. Arch. Int. Pharmacodyn. 1977, 229:327-336), in meta-chlorophenyl piperazine (m-CPP) test on rats (Drug Dev. Res. 1989, 18:119-144), and in apomorphine, tryptamine, norepinephrine (ATN) test in rats (Arch. Int. Pharmacodyn. 1977, 227:238-253).
(§2) In Vitro Method for Determining Affinity for Binding to 5-HT2A and 5-HT2C Receptors
(§3) A small concentration of a radioligand having a great affinity for binding to a receptor was incubated with a tissue sample enriched with a certain receptor (1-5 mg of tissue) in a buffered medium (0.2-5 mL). Recombinant human HT2A and HT2C receptors were expressed in CHO-K1 or COS-7 cells and were also used for competitive binding. During incubation the radioligand bound to the receptor. When a binding balance was achieved, the receptors to which the radioligand was bound were separated from those to which said ligand was not bound, and the radioactivity of the receptor/radioligand complex was measured. The interaction of the tested compounds with receptors was tested in competitive binding experiments. Various concentrations of tested compounds were added to the incubation mixture containing a prepared tissue enriched with corresponding receptors and the radioligand. The radioligand binding was inhibited by the test compounds proportionally to the affinity of a certain compound for the receptor and to the concentration of the compound.
The radioligand used for the determination of binding to ^5-HT2A receptor was [^3H]-ketanserin and the tissue used was human cortex or recombinant 5-HT2A receptor expressed in CHO—K1.

Another test concerns the target T2, 5-HT2C receptor (Homo sapiens, UniProt P28335).
T2 construct: expressed in transfected cells; host or cells: CHO-K1 cells (alternatively choroid plexus tissue)
T2 sequence (P28335 33-458): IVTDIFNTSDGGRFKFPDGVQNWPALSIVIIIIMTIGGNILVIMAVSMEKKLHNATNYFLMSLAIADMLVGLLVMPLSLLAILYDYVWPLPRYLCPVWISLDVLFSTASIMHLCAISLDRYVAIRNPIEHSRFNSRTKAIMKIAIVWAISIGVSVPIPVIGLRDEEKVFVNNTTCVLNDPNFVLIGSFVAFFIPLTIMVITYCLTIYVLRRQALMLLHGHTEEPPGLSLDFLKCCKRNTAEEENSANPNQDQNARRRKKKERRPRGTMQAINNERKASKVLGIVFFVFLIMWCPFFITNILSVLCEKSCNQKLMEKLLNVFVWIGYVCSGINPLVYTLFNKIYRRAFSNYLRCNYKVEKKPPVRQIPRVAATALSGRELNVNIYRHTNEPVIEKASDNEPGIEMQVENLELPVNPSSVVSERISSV
Description: radioligand binding assay for 5-HT2C receptor ([3H]-mesulergine). As to conditions: competitive binding; for IC50: choroid plexus or recombinant 5-HT2C in CHO-K1, read-out: binding affinity to 5-HT2C serotonin receptor expressed as IC50 value; for Ki: choroid plexus or recombinant 5-HT2C in CHO-K1, read-out: binding affinity to 5-HT2C serotonin receptor, Ki value. The method, then:
as §1, §2, §3
The radioligand used for the determination of binding to 5-HT2C receptor was [^3H]-mesulergine and the tissue used was choroid plexus or recombinant 5-HT2C receptor expressed in CHO—K1 cells.

For orientation: IC50 means the concentration at which inhibition is half-maximal. What is called Ki is the equilibrium dissociation constant of an inhibitor or competing ligand from its target.

T1 sequence (P28223 whole entry): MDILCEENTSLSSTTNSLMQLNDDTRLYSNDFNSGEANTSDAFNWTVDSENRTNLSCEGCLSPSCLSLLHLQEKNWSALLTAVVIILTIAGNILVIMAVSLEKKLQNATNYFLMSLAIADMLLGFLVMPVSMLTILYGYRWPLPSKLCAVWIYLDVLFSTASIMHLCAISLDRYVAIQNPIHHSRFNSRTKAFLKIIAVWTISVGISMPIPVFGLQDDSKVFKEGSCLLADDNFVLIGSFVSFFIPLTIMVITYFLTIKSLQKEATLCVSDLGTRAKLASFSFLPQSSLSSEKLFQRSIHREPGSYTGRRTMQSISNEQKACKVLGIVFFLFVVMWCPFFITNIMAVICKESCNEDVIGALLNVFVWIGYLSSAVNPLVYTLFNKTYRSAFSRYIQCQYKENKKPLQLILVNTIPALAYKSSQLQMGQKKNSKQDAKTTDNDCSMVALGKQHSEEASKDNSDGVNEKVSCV

Consider `c1ccc2c(c1)Sc1ccccc1-c1ocnc1-2` [1-oxa-8-thia-3-aza-dibenzo[e,h]azulene], for which the concentration for half-maximal inhibition (IC50) at 5-HT2A receptor and at 5-HT2C receptor was less than 200 nM in each case. Also, the Ki at 5-HT2A receptor and on 5-HT2C receptor was less than 100 nM throughout.

Turning to `Cc1nc2c(o1)-c1ccccc1Oc1ccc(Cl)cc1-2` [5-chloro-2-methyl-1,8-dioxa-3-aza-dibenzo[e,h]azulene], the IC50 on 5-HT2A receptor and at 5-HT2C receptor was less than 200 nM throughout. Also, the Ki on 5-HT2A receptor and on 5-HT2C receptor was less than 100 nM in each case.

`CN(C)CCOCc1nc2c(o1)-c1ccccc1Sc1ccc(Cl)cc1-2` [[2-(5-chloro-1-oxa-8-thia-3-aza-dibenzo[e,h]azulen-2-ylmethoxy)-ethyl]-dimethyl-amine]: on 5-HT2A receptor, the IC50 is less than 200 nM and the Ki is less than 100 nM. Moreover, at 5-HT2C receptor, the IC50 is less than 200 nM and the Ki was less than 100 nM.

In the case of `CN(C)CCOCc1nc2c(o1)-c1cc(Cl)ccc1Sc1ccccc1-2` [[2-(11-chloro-1-oxa-8-thia-3-aza-dibenzo[e,h]azulen-2-ylmethoxy)-ethyl]-dimethyl-amine], at 5-HT2A receptor, the half-inhibitory concentration (IC50) is less than 200 nM and the Ki was less than 100 nM. On 5-HT2C receptor, the half-maximal inhibitory concentration (IC50) is less than 200 nM and the inhibition constant Ki is less than 100 nM.

In the case of `CN(C)CCOCc1nc2c(o1)-c1ccccc1Sc1ccccc1-2` [dimethyl-[2-(1-oxa-8-thia-3-aza-dibenzo[e,h]azulen-2-ylmethoxy)-ethyl]-amine], at 5-HT2A receptor, the half-inhibitory concentration (IC50) was less than 200 nM and the Ki was less than 100 nM. At 5-HT2C receptor, the IC50 is less than 200 nM and the Ki is less than 100 nM.

For the origin of these results see patent US20070111990A1, “3-Aza-1-oxa-dibenzo[e,h]azulenes for the treatment of central nervous system diseases and disorders” (GLAXOSMITHKLINE ISTRAZIVACKI CENTAR ZAGREB D.O.O., priority 2003, published 2007).
